According to ChEMBL document CHEMBL3991601, “The target landscape of clinical kinase drugs” (Science, 2017):
Active and inactive are the calls of the source. Rule as the data show it, for most assays here: actives have a measured Kd and inactives only a lower limit.

Assays:
[1] = target: Adenylate kinase 2, mitochondrial (Homo sapiens, UniProt P54819)
[2] = target: Atypical kinase COQ8A, mitochondrial (Homo sapiens, UniProt Q8NI60)
[3] = target: MAP kinase-activated protein kinase 2 (Homo sapiens, UniProt P49137)
[4] = target: Epithelial discoidin domain-containing receptor 1 (Homo sapiens, UniProt Q08345)
[5] = target: T1, Delta(24)-sterol reductase (Homo sapiens, UniProt Q15392)
T1 sequence (Q15392 whole entry): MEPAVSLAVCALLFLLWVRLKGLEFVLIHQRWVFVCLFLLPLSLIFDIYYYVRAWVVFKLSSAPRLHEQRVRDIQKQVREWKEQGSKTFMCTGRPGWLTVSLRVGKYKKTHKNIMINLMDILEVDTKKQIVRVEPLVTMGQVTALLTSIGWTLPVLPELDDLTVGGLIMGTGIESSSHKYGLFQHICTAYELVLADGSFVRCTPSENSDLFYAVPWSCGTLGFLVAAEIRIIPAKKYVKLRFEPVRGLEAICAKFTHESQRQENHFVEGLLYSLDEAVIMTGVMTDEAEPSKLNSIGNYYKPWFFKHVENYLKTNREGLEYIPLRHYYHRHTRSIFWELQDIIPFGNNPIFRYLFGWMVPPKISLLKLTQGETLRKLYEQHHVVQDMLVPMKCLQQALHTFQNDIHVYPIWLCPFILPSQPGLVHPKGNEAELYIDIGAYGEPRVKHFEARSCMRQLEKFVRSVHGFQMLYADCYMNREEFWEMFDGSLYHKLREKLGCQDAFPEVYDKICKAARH

[6] = target: Calcium/calmodulin-dependent protein kinase type II subunit gamma (Homo sapiens, UniProt Q13555)
[7] = target: T2, Bifunctional phosphoribosylaminoimidazole carboxylase/phosphoribosylaminoimidazole succinocarboxamide synthetase (Homo sapiens, UniProt P22234)
T2 sequence (P22234 whole entry): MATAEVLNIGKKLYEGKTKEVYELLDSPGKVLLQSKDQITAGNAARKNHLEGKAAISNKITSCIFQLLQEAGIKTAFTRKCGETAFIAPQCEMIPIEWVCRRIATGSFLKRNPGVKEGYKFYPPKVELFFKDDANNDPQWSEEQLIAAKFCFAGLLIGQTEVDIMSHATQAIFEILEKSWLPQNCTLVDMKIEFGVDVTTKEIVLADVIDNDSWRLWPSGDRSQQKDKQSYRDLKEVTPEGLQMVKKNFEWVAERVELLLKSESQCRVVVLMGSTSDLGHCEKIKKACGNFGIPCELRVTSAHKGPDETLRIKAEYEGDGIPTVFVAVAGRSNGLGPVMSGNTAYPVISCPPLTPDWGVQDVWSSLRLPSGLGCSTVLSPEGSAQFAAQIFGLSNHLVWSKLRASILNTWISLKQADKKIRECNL

[8] = target: Mitogen-activated protein kinase kinase kinase kinase 5 (Homo sapiens, UniProt Q9Y4K4)
[9] = target: T3, Mitogen-activated protein kinase kinase kinase kinase 3 (Homo sapiens, UniProt Q8IVH8)
T3 sequence (Q8IVH8 whole entry): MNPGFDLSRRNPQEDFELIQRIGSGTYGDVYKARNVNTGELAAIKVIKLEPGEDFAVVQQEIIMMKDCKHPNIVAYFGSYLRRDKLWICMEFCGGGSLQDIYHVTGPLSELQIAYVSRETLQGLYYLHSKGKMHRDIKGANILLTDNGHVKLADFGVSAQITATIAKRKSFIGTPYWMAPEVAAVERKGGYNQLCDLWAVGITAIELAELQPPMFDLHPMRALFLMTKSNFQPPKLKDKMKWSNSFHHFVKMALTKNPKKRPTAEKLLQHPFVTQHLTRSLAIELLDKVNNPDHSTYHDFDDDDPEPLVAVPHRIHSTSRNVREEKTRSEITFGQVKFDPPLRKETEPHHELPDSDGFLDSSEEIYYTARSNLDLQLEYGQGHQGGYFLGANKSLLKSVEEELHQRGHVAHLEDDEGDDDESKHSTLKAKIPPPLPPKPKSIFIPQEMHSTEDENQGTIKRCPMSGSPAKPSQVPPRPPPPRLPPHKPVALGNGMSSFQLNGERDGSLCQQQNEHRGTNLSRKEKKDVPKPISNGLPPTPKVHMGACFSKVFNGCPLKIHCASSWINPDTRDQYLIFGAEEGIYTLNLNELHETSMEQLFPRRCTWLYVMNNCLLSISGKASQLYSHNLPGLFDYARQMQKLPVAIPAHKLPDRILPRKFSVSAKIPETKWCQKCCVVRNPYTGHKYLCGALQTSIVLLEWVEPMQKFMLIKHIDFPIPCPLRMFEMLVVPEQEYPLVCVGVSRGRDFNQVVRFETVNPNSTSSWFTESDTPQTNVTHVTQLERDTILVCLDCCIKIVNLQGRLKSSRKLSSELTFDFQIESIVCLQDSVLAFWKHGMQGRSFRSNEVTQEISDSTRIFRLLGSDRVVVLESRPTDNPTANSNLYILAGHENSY

[10] = target: T4, Uncharacterized protein FLJ45252 (Homo sapiens, UniProt Q6ZSR9); settings: read-out: Kd apparent; k-562, colo 205, sk-n-be(2) and mv-4-11
T4 sequence (Q6ZSR9 whole entry): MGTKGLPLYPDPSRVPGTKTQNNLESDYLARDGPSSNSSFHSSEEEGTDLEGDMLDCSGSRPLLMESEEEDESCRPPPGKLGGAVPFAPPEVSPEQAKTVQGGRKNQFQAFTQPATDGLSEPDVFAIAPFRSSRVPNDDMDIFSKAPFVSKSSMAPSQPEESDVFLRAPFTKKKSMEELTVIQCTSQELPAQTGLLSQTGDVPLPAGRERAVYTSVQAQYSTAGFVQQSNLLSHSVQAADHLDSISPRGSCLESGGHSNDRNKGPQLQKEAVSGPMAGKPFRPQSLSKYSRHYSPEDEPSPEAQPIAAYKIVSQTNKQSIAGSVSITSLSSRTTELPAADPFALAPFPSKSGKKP

[11] = target: Structural maintenance of chromosomes protein 2 (Homo sapiens, UniProt O95347)
[12] = target: Tyrosine-protein kinase FRK (Homo sapiens, UniProt P42685)
[13] = target: Serine/threonine-protein kinase pim-1 (Homo sapiens, UniProt P11309)
[14] = target: Mitogen-activated protein kinase 10 (Homo sapiens, UniProt P53779)
[15] = target: Cyclin-dependent kinase 5 (Homo sapiens, UniProt Q00535)
Also: in the data inactive means no Kd found up to 30 µM.

Mitogen-activated protein kinase kinase kinase kinase 5, sequence (Q9Y4K4 whole entry): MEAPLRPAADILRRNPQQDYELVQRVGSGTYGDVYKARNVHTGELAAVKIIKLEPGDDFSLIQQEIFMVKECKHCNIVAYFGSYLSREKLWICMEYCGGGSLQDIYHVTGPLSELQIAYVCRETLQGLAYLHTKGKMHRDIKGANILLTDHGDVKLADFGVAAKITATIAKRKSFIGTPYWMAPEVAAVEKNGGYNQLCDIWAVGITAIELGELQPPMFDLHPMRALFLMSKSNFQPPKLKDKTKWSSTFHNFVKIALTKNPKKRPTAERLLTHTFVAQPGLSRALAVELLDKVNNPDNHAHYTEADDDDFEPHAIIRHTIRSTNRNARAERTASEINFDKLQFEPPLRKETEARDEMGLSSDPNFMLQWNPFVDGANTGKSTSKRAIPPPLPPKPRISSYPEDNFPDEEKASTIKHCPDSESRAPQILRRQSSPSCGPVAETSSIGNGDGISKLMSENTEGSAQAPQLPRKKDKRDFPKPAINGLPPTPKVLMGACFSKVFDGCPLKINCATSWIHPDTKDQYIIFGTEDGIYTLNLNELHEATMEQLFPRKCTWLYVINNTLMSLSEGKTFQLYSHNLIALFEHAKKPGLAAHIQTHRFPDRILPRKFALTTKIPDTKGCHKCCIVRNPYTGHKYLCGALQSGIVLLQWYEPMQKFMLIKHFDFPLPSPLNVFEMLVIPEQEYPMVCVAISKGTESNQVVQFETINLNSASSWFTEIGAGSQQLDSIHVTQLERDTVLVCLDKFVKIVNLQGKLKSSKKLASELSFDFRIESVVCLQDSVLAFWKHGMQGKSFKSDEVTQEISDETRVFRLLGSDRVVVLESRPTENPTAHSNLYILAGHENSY
Tyrosine-protein kinase FRK, sequence (P42685 whole entry): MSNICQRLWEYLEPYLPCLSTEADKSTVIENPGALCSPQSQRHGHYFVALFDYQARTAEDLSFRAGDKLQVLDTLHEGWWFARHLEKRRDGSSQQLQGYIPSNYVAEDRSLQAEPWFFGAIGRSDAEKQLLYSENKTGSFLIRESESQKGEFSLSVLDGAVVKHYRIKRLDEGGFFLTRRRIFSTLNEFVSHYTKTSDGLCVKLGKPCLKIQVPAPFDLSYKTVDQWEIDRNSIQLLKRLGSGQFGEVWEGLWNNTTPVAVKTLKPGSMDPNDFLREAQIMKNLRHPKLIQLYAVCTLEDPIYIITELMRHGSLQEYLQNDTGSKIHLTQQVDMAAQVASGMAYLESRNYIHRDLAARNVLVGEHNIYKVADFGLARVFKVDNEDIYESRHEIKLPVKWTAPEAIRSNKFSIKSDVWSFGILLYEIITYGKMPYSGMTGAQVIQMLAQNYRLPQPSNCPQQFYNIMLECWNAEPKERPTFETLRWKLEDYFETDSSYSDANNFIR
Mitogen-activated protein kinase 10, sequence (P53779 whole entry): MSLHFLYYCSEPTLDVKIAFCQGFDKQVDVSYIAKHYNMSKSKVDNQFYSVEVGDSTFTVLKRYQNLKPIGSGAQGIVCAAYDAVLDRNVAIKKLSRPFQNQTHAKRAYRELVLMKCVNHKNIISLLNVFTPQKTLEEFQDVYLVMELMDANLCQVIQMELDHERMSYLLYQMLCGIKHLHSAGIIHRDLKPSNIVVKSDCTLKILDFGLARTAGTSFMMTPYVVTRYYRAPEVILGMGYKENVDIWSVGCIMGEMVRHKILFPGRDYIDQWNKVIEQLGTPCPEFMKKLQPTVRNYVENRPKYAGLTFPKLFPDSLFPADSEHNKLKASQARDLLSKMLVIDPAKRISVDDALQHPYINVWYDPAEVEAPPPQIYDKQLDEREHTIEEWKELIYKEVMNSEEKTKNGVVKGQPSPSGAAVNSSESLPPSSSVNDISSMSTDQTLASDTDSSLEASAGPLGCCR
Serine/threonine-protein kinase pim-1, sequence (P11309 whole entry): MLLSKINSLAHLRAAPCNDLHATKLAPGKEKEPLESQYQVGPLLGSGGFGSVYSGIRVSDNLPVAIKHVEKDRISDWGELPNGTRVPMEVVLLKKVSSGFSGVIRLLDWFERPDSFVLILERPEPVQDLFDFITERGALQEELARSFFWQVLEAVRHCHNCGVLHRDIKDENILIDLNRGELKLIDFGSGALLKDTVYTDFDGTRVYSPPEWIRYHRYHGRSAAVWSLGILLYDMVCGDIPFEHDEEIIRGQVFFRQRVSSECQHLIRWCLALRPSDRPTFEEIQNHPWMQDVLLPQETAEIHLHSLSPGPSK
Atypical kinase COQ8A, mitochondrial, sequence (Q8NI60 whole entry): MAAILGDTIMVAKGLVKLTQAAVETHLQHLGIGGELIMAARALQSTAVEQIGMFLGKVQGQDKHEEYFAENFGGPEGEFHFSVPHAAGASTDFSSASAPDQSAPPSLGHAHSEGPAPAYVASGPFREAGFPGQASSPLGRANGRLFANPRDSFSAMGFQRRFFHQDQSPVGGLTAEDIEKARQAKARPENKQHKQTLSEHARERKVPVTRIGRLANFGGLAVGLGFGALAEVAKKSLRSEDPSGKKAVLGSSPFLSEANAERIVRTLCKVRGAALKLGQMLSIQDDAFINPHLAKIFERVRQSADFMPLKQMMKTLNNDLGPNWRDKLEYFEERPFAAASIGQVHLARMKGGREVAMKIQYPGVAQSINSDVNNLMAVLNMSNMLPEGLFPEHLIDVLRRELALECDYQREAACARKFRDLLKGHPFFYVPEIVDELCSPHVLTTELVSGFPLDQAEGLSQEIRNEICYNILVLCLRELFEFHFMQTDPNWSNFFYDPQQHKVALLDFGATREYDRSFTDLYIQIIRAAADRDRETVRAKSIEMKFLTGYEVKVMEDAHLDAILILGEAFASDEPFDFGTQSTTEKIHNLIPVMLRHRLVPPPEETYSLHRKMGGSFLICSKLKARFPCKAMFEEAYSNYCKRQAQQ
Structural maintenance of chromosomes protein 2, sequence (O95347 whole entry): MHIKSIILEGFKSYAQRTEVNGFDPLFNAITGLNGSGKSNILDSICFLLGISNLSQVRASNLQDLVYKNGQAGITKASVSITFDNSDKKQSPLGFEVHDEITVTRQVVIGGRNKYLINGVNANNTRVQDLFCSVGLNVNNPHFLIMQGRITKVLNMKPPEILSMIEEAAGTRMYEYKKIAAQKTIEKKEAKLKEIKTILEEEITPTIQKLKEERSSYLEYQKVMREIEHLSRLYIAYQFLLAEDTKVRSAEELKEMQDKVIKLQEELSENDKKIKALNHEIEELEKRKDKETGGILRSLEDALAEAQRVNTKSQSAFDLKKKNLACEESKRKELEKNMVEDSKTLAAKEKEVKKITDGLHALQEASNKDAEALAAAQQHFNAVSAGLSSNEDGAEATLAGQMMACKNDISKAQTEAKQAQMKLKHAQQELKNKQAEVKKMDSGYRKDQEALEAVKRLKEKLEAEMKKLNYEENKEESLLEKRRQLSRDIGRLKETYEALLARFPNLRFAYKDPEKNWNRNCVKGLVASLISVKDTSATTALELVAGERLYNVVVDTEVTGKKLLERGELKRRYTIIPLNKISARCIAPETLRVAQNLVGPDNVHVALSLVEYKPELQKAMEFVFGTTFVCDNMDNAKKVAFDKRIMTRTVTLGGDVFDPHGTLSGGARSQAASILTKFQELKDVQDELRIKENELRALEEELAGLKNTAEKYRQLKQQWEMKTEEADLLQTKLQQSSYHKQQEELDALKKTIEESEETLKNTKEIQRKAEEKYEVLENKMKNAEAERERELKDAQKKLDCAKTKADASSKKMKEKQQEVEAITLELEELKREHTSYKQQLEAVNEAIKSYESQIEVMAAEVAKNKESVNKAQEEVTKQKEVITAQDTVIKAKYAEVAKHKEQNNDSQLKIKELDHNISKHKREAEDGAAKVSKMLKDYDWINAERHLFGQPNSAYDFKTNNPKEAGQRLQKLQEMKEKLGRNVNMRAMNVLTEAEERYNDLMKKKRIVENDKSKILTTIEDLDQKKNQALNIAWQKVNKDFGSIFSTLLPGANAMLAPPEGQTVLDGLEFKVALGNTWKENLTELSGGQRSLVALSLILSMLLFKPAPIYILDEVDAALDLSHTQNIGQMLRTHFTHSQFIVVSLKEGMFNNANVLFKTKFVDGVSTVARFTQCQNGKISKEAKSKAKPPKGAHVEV
MAP kinase-activated protein kinase 2, sequence (P49137 whole entry, the tested form may be a part): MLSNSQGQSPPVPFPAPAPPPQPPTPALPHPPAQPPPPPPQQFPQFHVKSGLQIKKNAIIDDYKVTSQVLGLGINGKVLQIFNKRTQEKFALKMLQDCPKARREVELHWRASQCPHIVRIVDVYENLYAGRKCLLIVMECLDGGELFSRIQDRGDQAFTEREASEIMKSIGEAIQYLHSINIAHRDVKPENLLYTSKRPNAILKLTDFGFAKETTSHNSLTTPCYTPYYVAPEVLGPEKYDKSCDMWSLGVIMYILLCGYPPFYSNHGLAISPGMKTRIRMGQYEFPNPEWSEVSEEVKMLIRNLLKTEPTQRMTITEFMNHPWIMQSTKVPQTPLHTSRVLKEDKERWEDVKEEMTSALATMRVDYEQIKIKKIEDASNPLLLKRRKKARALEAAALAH
Calcium/calmodulin-dependent protein kinase type II subunit gamma, sequence (Q13555 whole entry): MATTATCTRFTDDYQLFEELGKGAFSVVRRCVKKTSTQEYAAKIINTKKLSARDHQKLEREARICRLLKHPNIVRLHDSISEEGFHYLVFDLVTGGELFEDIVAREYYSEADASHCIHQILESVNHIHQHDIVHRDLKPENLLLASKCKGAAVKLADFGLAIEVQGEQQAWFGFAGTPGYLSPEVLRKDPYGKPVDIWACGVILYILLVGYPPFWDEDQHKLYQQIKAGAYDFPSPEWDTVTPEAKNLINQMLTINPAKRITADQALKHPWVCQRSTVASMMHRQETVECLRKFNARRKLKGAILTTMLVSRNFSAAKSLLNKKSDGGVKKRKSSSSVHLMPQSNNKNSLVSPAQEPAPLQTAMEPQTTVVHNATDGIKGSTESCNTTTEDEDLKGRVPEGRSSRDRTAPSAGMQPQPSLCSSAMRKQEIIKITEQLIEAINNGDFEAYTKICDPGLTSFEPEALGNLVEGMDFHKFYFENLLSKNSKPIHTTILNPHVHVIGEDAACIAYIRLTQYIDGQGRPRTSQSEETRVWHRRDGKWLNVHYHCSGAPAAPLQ

Row | SMILES | Kd [1] | Kd [2] | Kd [3] | Kd [4] | Kd [5] | Kd [6] | Kd [7] | Kd [8] | Kd [9] | Kd [10] | Kd [11] | Kd [12] | Kd [13] | Kd [14] | Kd [15]
1 | COC(=O)[C@@]1(O)C[C@H]2O[C@]1(C)n1c3ccccc3c3c4c(c5c6ccccc6n2c5c31)C(=O)NC4 [K-252A] | > 30 µM (inactive) | > 30 µM (inactive) | > 30 µM (inactive) | > 30 µM (inactive) | > 30 µM (inactive) | 0.173 µM (active) | > 30 µM (inactive) | 0.193 µM (active) | 2.37 µM (active) | 0.021 µM (active) | > 30 µM (inactive) | > 30 µM (inactive) | > 30 µM (inactive) | > 30 µM (inactive) | 0.911 µM (active)
2 | CN1CCC(COc2cnc(-c3cccc(Cn4nc(-c5cccc(C#N)c5)ccc4=O)c3)nc2)CC1 [TEPOTINIB] | > 30 µM (inactive) | > 30 µM (inactive) | > 30 µM (inactive) | > 30 µM (inactive) | > 30 µM (inactive) | > 30 µM (inactive) | > 30 µM (inactive) | > 30 µM (inactive) | > 30 µM (inactive) | > 30 µM (inactive) | > 30 µM (inactive) | > 30 µM (inactive) | > 30 µM (inactive) | > 30 µM (inactive) | > 30 µM (inactive)
3 | COc1cc(N2CCC(N3CCN(C)CC3)CC2)ccc1Nc1ncnc(Nc2ccccc2S(=O)(=O)C(C)C)n1 [ASP-3026] | > 30 µM (inactive) | > 30 µM (inactive) | > 30 µM (inactive) | 4.04 µM (active) | > 30 µM (inactive) | 1.41 µM (active) | > 30 µM (inactive) | > 30 µM (inactive) | > 30 µM (inactive) | 0.822 µM (active) | > 30 µM (inactive) | 0.39 µM (active) | > 30 µM (inactive) | > 30 µM (inactive) | > 30 µM (inactive)
4 | CNC(=O)c1ccc(-c2cnc3ncc(Cc4ccc5ncccc5c4)n3n2)cc1F [CAPMATINIB] | > 30 µM (inactive) | > 30 µM (inactive) | > 30 µM (inactive) | > 30 µM (inactive) | > 30 µM (inactive) | > 30 µM (inactive) | > 30 µM (inactive) | > 30 µM (inactive) | > 30 µM (inactive) | > 30 µM (inactive) | > 30 µM (inactive) | > 30 µM (inactive) | > 30 µM (inactive) | > 30 µM (inactive) | > 30 µM (inactive)
5 | CCn1c(=O)c(-c2cc[nH]n2)cc2c(C)nc(N)nc21 [VOXTALISIB] | > 30 µM (inactive) | > 30 µM (inactive) | > 30 µM (inactive) | > 30 µM (inactive) | > 30 µM (inactive) | > 30 µM (inactive) | > 30 µM (inactive) | > 30 µM (inactive) | > 30 µM (inactive) | > 30 µM (inactive) | > 30 µM (inactive) | > 30 µM (inactive) | > 30 µM (inactive) | > 30 µM (inactive) | > 30 µM (inactive)
6 | Cc1cc2c(F)c(Oc3ncnn4cc(OC[C@@H](C)OC(=O)[C@H](C)N)c(C)c34)ccc2[nH]1 [BRIVANIB ALANINATE] | > 30 µM (inactive) | > 30 µM (inactive) | > 30 µM (inactive) | 1.04 µM (active) | > 30 µM (inactive) | > 30 µM (inactive) | > 30 µM (inactive) | > 30 µM (inactive) | > 30 µM (inactive) | > 30 µM (inactive) | > 30 µM (inactive) | > 30 µM (inactive) | > 30 µM (inactive) | > 30 µM (inactive) | > 30 µM (inactive)
7 | COc1cc(OC)c(/C=C/S(=O)(=O)Cc2ccc(OC)c(NCC(=O)O)c2)c(OC)c1 [RIGOSERTIB] | > 30 µM (inactive) | > 30 µM (inactive) | > 30 µM (inactive) | > 30 µM (inactive) | > 30 µM (inactive) | > 30 µM (inactive) | > 30 µM (inactive) | > 30 µM (inactive) | > 30 µM (inactive) | > 30 µM (inactive) | > 30 µM (inactive) | > 30 µM (inactive) | > 30 µM (inactive) | > 30 µM (inactive) | > 30 µM (inactive)
